Measured values as given in patent US20250313544A1, “INHIBITORS OF GLUTATHIONE S-TRANSFERASE ZETA 1 (GSTZ1) AND METHODS OF USE” (H. LEE MOFFITT CANCER CENTER AND RESEARCH INSTITUTE, INC., priority 2022, published 2025).

How the values were obtained:
[1] = system: drug-refractory NSCLC cells (H1792, H520, HCC366); experiment: Cell viability assay (CellTiter-Glo) across drug-refractory NSCLC cell lines; assay type: cell-based, human
Method: (§1) Cells were seeded in Corning 384-well black walled/clear bottom microplates with a density of 1,000 cells/well and treated with indicated drugs and concentrations following cell attachment for 24 h. After 72 h or 96 h, as indicated, cell viability was evaluated with CellTiter-Glo (Promega, Madison, WI) according to manufacturer's recommendations. An M5 Spectramax plate reader (Molecular devices) was used to read the plates with 500 ms integration. Data was processed and analyzed using Excel and GraphPad Prism 9.0.

[2] = system: H520 cells harboring amplified FGFR1; experiment: Cell viability assay (CellTiter-Glo) in H520 cells; assay type: cell-based, human; details: probe combined with infigratinib in H520 cells, dose of 5 μM (FIG. 9E)
Method: as §1

H1792 LUAD cells = experiment: Chemical proteomics target profiling in live H1792 cells (label-free LC-MS/MS, comparison with control probe 22 and panel-wide cross-comparison); assay type: binding, human
Method: Cells were grown in 10 cm dishes to ˜90% confluence at the time of treatment. Cells were carefully washed twice with Dulbecco's phosphate buffered saline (DPBS) and replenished with fresh serum-free RPMI 1640 media containing indicated probes ([…]), competitors, or DMSO. Without competitors, cells were incubated with probes for 30 min at 37° C. and then exposed to 365 nm UV light for 15 min on ice. With competitors, cells were pre-treated with competitors for 30 min and photoactivated for 15 min. Probes were then added to cells for an additional 30 min incubation. For no UV experiments, cells were incubated for 15 min under ambient light. Cells were harvested in cold DPBS and pellets were washed with cold DPBS (2 X). Pellets were either directly processed or kept frozen at −80° C. until use. Cells pellets were lysed for 30 min in cold DPBS (100-300 uL) per culture dish supplemented with 1% NP-40, followed by sonication (5 pulses, 4 s on, 20 s off, output setting=4). Lysates were centrifuged at 20,817×g for 20 min, and supernatant (soluble proteome) was used for further processing. Protein concentrations were determined using Bradford assays.
Protein pellets were transferred to 5 mL microcentrifuge tubes and then resuspended in a freshly-prepared solution of proteomics-grade urea (320 μL, 6 M Urea in DPBS) containing 80 μL of 10% SDS and dissolved by sonication. To each solution, 4 mL DPBS was added (final conc: 0.2%, total volume) and incubated with pre-equilibrated NeutrAvidin agarose resin (100 μL 1:1 slurry, Pierce, Cat. 29201) for 2 hrs at ambient temperature on a rotator. The NeutrAvidin beads were collected by centrifugation (1,400×g, 2 min) and sequentially washed with 0.2% SDS in DPBS (2×2 mL), detergent-free DPBS (2×2 mL), and 50 mM ammonium bicarbonate (AMBIC, 2×2 mL). Beads were resuspended with 200 μL 50 mM AMBIC and incubated with TCEP 50 μL (100 mM in 50 mM AMBIC) for 30 min at 37° C. Iodoacetamide (50 μL of 200 mM in 50 mM AMBIC) was added and incubated for 30 min at ambient temperature. The beads were again washed with 2×1 mL 50 mM AMBIC and resuspended in 100 μL of fresh 50 mM AMBIC and treated with 2 μg of sequencing grade modified trypsin (Promega, #V5111) at 37° C. overnight. These samples were acidified with formic acid (final conc: 5%) and centrifuged (1,000×g, 2 min). The supernatant was collected and desalted through ZIPTIPs, and the desalted peptide mixture were dried in vacuum and reconstituted with HPLC buffer (2% acetonitrile, 0.1% formic acid) for LC-MS/MS analysis. Tryptic peptides of avidin were excluded from MS2 analysis to maximize detection of the protein targets (Table S7). Samples were analyzed using LC-MS/MS after being spiked with 50 fmol/uL PRTC standards (88320, Pierce Retention Time Calibration Mixture, Thermo Fisher, MA). A nanoflow ultra high performance liquid chromatograph and nanoelectrospray orbitrap mass spectrometer (RSLCnano and Q Exactive plus, Thermo) were used for LC-MS/MS. The sample was loaded onto a pre-column (C18 PepMap100, 2 cm length×100 μm ID packed with C18 reversed-phase resin, 5 μm particle size, 100 Å pore size) and washed for 8 minutes with aqueous 2% acetonitrile and 0.1% formic acid. Trapped peptides were eluted onto the analytical column, (C18 PepMap100, 25 cm length×75 μm ID, 2 μm particle size, 100 Å pore size, Thermo). A 120-minute gradient was programmed as: 95% solvent A (aqueous 2% acetonitrile+0.1% formic acid) for 8 minutes, solvent B (aqueous 90% acetonitrile+0.1% formic acid) from 5% to 38.5% in 90 minutes, then solvent B from 50% to 90% B in 7 minutes and held at 90% for 5 minutes, followed by solvent B from 90% to 5% in 1 minute and re-equilibration for 10 minutes using a flow rate of 300 nl/min. Spray voltage was 1900 V. Capillary temperature was 275° C. S lens RF level was set at 40. Top 16 tandem mass spectra were collected in a data-dependent manner. The resolution for MS and MS/MS were set at 70,000 and 17,500 respectively. […]

## C#CCCC1(CCC(=O)N2CCC(COc3nc4ccccc4nc3C)CC2)N=N1 [Probe 17, 3-(3-(but-3-yn-1-yl)-3H-diazirin-3-yl)-1-(4-(((3-methylquinoxalin-2-yl)oxy)methyl)piperidin-1-yl)propan-1-one]
[1]
  single agent activity (cell viability): moderate single agent activity
[1]; single agent
  cellular activity of probes (cell viability): displayed activity toward multiple tested cell lines
  relative potency among active probes (cell viability): more potent
[2]
  sensitization of cells towards infigratinib: significantly enhanced the sensitivity
H1792 LUAD cells; compared to control probe and probe panel
  prominent target protein predominantly enriched by the probe: GSTZ1
H1792 LUAD cells; many other enriched putative targets vs. negative control probe alone
  selectivity of probe for GSTZ1: should not be considered a selective probe for GSTZ1
